Assay [1] concerns the target T1, LXRα LBD (GST) (Homo sapiens, UniProt Q13133).
T1 construct: 5 nM LXRα LBD (GST); 10 nM LXRβ LBD (GST); purchased ThermoFisher Scientific PV4655
T1 sequence (Q13133 209-447 limits assumed): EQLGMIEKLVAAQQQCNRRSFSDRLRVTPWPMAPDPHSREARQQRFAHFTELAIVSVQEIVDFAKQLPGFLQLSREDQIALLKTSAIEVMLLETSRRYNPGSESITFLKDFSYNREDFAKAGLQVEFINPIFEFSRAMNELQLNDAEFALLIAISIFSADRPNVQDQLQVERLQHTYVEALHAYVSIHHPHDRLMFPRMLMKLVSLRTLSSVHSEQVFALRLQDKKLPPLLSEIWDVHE
The experiment in a line: Time-resolved LXR FRET assay (LanthaScreen TR-FRET LXRα Coactivator Assay Kit). Format: biochemical. To be noted: for TR-FRET activity on LXRα, in words: statement made for both isoforms. On the procedure: (§1) The biochemical TR-FRET assays were performed using the LanthaScreen TR-FRET LXRα Coactivator Assay Kit, goat (ThermoFisher Scientific, PV4655), and the LanthaScreen TR-FRET LXRβ assay kit, goat (ThermoFisher Scientific, PV4658), according to the manufacturer’s instructions using the following concentrations: 5 nM LXRα LBD (GST); 10 nM LXRβ LBD (GST); 500 nM fluorescein-TRAP220/DRIP-2; 200 nM fluorescein-D22; 10 nM Tb anti-GST antibody. The TR-FRET signals were measured after 6 h using a TECAN SPARK multimode microplate reader with the following settings: first excitation wavelength: 360 nm (bandwidth 35 nm), first emission wavelength: 485 nm (bandwidth 20 nm); second excitation wavelength: 360 nm (bandwidth 35 nm), second emission wavelength: 535 nm (bandwidth 25 nm); integration time: 200 μs; lag time: 100 μs; settle time: 0 ms.

The target of assay [2] is T2, LXRβ LBD (GST) (Homo sapiens, UniProt P55055).
T2 construct: 5 nM LXRα LBD (GST); 10 nM LXRβ LBD (GST); purchased ThermoFisher Scientific PV4658
T2 sequence (P55055 222-460 limits assumed): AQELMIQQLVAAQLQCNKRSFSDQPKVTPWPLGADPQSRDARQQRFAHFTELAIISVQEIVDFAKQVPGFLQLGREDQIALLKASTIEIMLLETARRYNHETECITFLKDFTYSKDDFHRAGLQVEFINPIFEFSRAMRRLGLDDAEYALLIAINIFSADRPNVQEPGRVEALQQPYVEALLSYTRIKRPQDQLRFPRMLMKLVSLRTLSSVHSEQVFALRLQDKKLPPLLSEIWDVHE
Description: Time-resolved LXR FRET assay (LanthaScreen TR-FRET LXRβ assay kit). It counts as biochemical. To be noted: for TR-FRET activity on LXRβ, in words: statement made for both isoforms. On the procedure:
as §1
On the technique in general: In TR-FRET formats the signal depends on donor and acceptor labels being close together.

[3] abbreviates: 5 nM LXRα LBD (GST), read after 6 h, R^2 of fit given, read-out: TR-FRET activity (EC50) LXRα.
The mark [4] stands for this setting: 10 nM LXRβ LBD (GST), read after 6 h, R^2 of fit given, read-out: TR-FRET activity (EC50) LXRβ.
The mark [5] stands for this setting: supplement list of compounds, LXRα, unit inferred, read-out: FRET activity a.
Where [6] appears, read: supplement list of compounds, (LXRβ), unit inferred, read-out: FRET activity b.

Read-outs that look alike come from different tables or passages of the source.

On to `COc1ccc(NC2=C(c3ccccc3)C(=O)N(CC3CC3)C2=O)cc1` [Compound 23, 1-(Cyclopropylmethyl)-3-((4-methoxyphenyl)amino)-4-phenyl-1H-pyrrole-2,5-dione], for which the EC50 in assay [1] (setting [3]) stood at 342 nM; in assay [2] (setting [4]) it was 163 nM.
On the same counts, the results for `O=C1C(Nc2ccccc2)=C(c2ccccc2)C(=O)N1Cc1ccccc1` [Compound 29, 1-Benzyl-3-phenyl-4-(phenylamino)-1H-pyrrole-2,5-dione] are 312 nM and 265 nM.
As for `COc1ccc(NC2=C(c3ccccc3)C(=O)N(Cc3ccc(C)cc3)C2=O)cc1` [Compound 17, 3-((4-Methoxyphenyl)amino)-1-(4-methylbenzyl)-4-phenyl-1H-pyrrole-2,5-dione], the EC50 was determined as 579 nM in assay [1] (setting [3]) and 332 nM in assay [2] (setting [4]).
For `COc1ccc(NC2=C(c3ccccc3)C(=O)N(Cc3ccc(C(C)(C)C)cc3)C2=O)cc1` [Compound 20, 1-(4-(tert-Butyl)benzyl)-3-((4-methoxyphenyl)amino)-4-phenyl-1H-pyrrole-2,5-dione], the EC50 in assay [1] (setting [3]) and in assay [2] (setting [4]) was more than 3000 nM in each case.
For `COc1ccc(NC2=C(c3ccccc3)C(=O)N(C(C)(C)C)C2=O)cc1` [Compound 24, 1-(tert-Butyl)-3-((4-methoxyphenyl)amino)-4-phenyl-1H-pyrrole-2,5-dione], the EC50 in assay [1] (setting [3]) is 245 nM; in assay [2] (setting [4]), 232 nM.
On the same counts, the results for `COc1ccc(NC2=C(c3ccccc3)C(=O)N(Cc3ccncc3)C2=O)cc1` [Compound 21, 3-((4-Methoxyphenyl)amino)-4-phenyl-1-(pyridin-4-ylmethyl)-1H-pyrrole-2,5-dione] are 390 nM and 231 nM.
Consider `O=C1NC(=O)C(c2ccccc2)=C1Nc1ccc(N2CCCCC2)cc1` [Compound 52, 3-Phenyl-4-((4-(piperidin-1-yl)phenyl)amino)-1H-pyrrole-2,5-dione], for which the EC50 in assay [1] (setting [3]) and in assay [2] (setting [4]) was more than 3000 nM in each case. In addition, in assay [1], the “TR-FRET activity on LXRα, in words” value is “no activity”. In addition, the “TR-FRET activity on LXRβ, in words” value in assay [2] is “no activity”.
In the case of `O=C1C(Nc2ccc(O)cc2)=C(c2ccccc2)C(=O)N1Cc1ccccc1` [Compound 33, 1-Benzyl-3-((4-hydroxyphenyl)amino)-4-phenyl-1H-pyrrole-2,5-dione], the values for the EC50 in assay [1] (setting [3]) and in assay [2] (setting [4]) were 390 nM and 206 nM, respectively.
On the same counts, the results for `O=C1Cc2cc(NC3=C(c4ccccc4)C(=O)N(Cc4ccccc4)C3=O)ccc2N1` [Compound 37, 1-Benzyl-3-((2-oxoindolin-5-yl)amino)-4-phenyl-1H-pyrrole-2,5-dione] are 139 nM and 84 nM.
On the same counts, the results for `Cc1ccc(NC2=C(c3ccccc3)C(=O)N(Cc3ccccc3)C2=O)cc1` [Compound 32, 1-Benzyl-3-phenyl-4-(p-tolylamino)-1H-pyrrole-2,5-dione] are 825 nM and 617 nM.
Take `O=C1C(Nc2ccc(NC3CCNCC3)cc2)=C(c2ccccc2)C(=O)N1Cc1ccccc1` [Compound 47, 1-Benzyl-3-phenyl-4-((4-(piperidin-4-ylamino)phenyl)amino)-1H-pyrrole-2,5-dione]: the EC50 in assay [1] (setting [5]) stood at 618 nM.
As to `COc1ccc(NC2=C(c3ccccc3)C(=O)N(Cc3ccc(F)cc3)C2=O)cc1` [Compound 16, 1-(4-Fluorobenzyl)-3-((4-methoxyphenyl)amino)-4-phenyl-1H-pyrrole-2,5-dione], the EC50 came out at 768 nM in assay [1] (setting [3]) and 594 nM in assay [2] (setting [4]).
Take `O=C1C(Nc2ccc3c(c2)OCO3)=C(c2ccccc2)C(=O)N1Cc1ccccc1` [Compound 38, 3-(Benzo[d][1,3]dioxol-5-ylamino)-1-benzyl-4-phenyl-1H-pyrrole-2,5-dione]: the EC50 in assay [1] (setting [3]) amounted to 42 nM; in assay [2] (setting [4]), 45 nM.
Consider `COc1ccc(CNC2=C(c3ccccc3)C(=O)N(Cc3ccccc3)C2=O)cc1` [Compound 28, 1-Benzyl-3-((4-methoxybenzyl)amino)-4-phenyl-1H-pyrrole-2,5-dione], for which the EC50 in assay [1] (setting [3]) and in assay [2] (setting [4]) was more than 3000 nM throughout. Further, the “TR-FRET activity on LXRα, in words” value in assay [1] was “no activity”. Besides, the “TR-FRET activity on LXRβ, in words” value in assay [2] is listed as “no activity”.
As to `COc1cc(NC2=C(c3ccccc3)C(=O)N(Cc3ccccc3)C2=O)cc(OC)c1` [Compound 39, 1-Benzyl-3-((3,5-dimethoxyphenyl)amino)-4-phenyl-1H-pyrrole-2,5-dione], the EC50 in assay [1] (setting [3]) stood at 737 nM; in assay [2] (setting [4]), 1320 nM.
`O=C1CCN(c2ccc(NC3=C(c4ccccc4)C(=O)N(Cc4ccccc4)C3=O)cc2)CC1` [Compound 49, 1-Benzyl-3-((4-(4-oxopiperidin-1-yl)phenyl)amino)-4-phenyl-1H-pyrrole-2,5-dione]: the EC50 in assay [1] (setting [5]) is 103 nM; in assay [2] (setting [6]), 130 nM.
With `COc1ccc(OC2=C(c3ccccc3)C(=O)N(Cc3ccccc3)C2=O)cc1` [Compound 26, 1-Benzyl-3-(4-methoxyphenoxy)-4-phenyl-1H-pyrrole-2,5-dione], the EC50 in assay [1] (setting [3]) and in assay [2] (setting [4]) was more than 3000 nM throughout. Moreover, the “TR-FRET activity on LXRα, in words” value in assay [1] is “completely lost activity”. Moreover, in assay [2], the “TR-FRET activity on LXRβ, in words” value is listed as “completely lost activity”.
For `O=C(c1ccc(NC2=C(c3ccccc3)C(=O)N(Cc3ccccc3)C2=O)cc1)N1CCCCC1` [Compound 50, 1-Benzyl-3-phenyl-4-((4-(piperidine-1-carbonyl)phenyl)amino)-1H-pyrrole-2,5-dione], the EC50 in assay [1] (setting [5]) amounted to 74 nM; in assay [2] (setting [6]) it was 225 nM.
Turning to `O=C1C(Nc2ccc(Cl)cc2)=C(c2ccccc2)C(=O)N1Cc1ccccc1` [Compound 30, 1-Benzyl-3-((4-chlorophenyl)amino)-4-phenyl-1H-pyrrole-2,5-dione], the EC50 was 1150 nM in assay [1] (setting [3]) and 1180 nM in assay [2] (setting [4]).
On the same counts, the results for `O=C1C(Nc2ccc(CO)cc2)=C(c2ccccc2)C(=O)N1Cc1ccccc1` [Compound 34, 1-Benzyl-3-((4-(hydroxymethyl)phenyl)amino)-4-phenyl-1H-pyrrole-2,5-dione] are 278 nM and 133 nM.
For `COc1ccc(NC2=C(c3ccccc3)C(=O)NC2=O)cc1` [Compound 25, 3-((4-Methoxyphenyl)amino)-4-phenyl-1H-pyrrole-2,5-dione], the EC50 in assay [1] (setting [3]) and in assay [2] (setting [4]) was more than 3000 nM in each case. Besides, the “TR-FRET activity on LXRα, in words” value in assay [1] was “no activity”. In assay [2], the “TR-FRET activity on LXRβ, in words” value was “no activity”.
As to `CN1CCC(Nc2ccc(NC3=C(c4ccccc4)C(=O)N(Cc4ccccc4)C3=O)cc2)CC1` [Compound 48, 1-Benzyl-3-((4-((1-methylpiperidin-4-yl)amino)phenyl)amino)-4-phenyl-1H-pyrrole-2,5-dione], the EC50 in assay [1] (setting [5]) was found to be 786 nM; in assay [2] (setting [6]), 150 nM.
In the case of `O=C1C(Nc2ccc(N3CCSCC3)cc2)=C(c2ccccc2)C(=O)N1Cc1ccccc1` [Compound 42, 1-Benzyl-3-phenyl-4-((4-thiomorpholinophenyl)amino)-1H-pyrrole-2,5-dione], the EC50 is 50 nM in assay [1] (setting [3]) and 123 nM in assay [2] (setting [4]).
As to `O=C1C(Nc2ccc(N3CCNCC3)cc2)=C(c2ccccc2)C(=O)N1Cc1ccccc1` [Compound 43, 1-Benzyl-3-phenyl-4-((4-(piperazin-1-yl)phenyl)amino)-1H-pyrrole-2,5-dione], the EC50 in assay [1] (setting [3]) was 1250 nM; in assay [2] (setting [4]), 283 nM.
In the case of `NC(=O)c1ccc(NC2=C(c3ccccc3)C(=O)N(Cc3ccccc3)C2=O)cc1` [Compound 36, 4-((1-Benzyl-2,5-dioxo-4-phenyl-2,5-dihydro-1H-pyrrol-3-yl)amino)benzamide], the EC50 in assay [1] (setting [3]) and in assay [2] (setting [4]) was more than 3000 nM each time. Also, in assay [1], the “TR-FRET activity on LXRα, in words” value was “completely abolished activation”. In assay [2], the “TR-FRET activity on LXRβ, in words” value is “completely abolished activation”.
Turning to `COc1ccc(NC2=C(c3ccccc3)C(=O)N(CC3CCCCC3)C2=O)cc1` [Compound 22, 1-(Cyclohexylmethyl)-3-((4-methoxyphenyl)amino)-4-phenyl-1H-pyrrole-2,5-dione], the values for the EC50 in assay [1] (setting [3]) and in assay [2] (setting [4]) were 1960 nM and 2590 nM, respectively.

Source of the values: publication PMC11997999, “Uncovering α-Selectivity for Liver X Receptor Agonists for Lipotoxic Cancer Therapies” (Journal of Medicinal Chemistry, 2025).
